From publication PMC7057177 (Journal of medicinal chemistry, 2019)

Experiments:
[1] = molecular target: T1, menin protein (Homo sapiens, UniProt O00255); assay: Fluorescence polarization; settings: for Times more potent than MIV-6 in binding to menin: FP binding assay
T1 sequence (O00255 1-610): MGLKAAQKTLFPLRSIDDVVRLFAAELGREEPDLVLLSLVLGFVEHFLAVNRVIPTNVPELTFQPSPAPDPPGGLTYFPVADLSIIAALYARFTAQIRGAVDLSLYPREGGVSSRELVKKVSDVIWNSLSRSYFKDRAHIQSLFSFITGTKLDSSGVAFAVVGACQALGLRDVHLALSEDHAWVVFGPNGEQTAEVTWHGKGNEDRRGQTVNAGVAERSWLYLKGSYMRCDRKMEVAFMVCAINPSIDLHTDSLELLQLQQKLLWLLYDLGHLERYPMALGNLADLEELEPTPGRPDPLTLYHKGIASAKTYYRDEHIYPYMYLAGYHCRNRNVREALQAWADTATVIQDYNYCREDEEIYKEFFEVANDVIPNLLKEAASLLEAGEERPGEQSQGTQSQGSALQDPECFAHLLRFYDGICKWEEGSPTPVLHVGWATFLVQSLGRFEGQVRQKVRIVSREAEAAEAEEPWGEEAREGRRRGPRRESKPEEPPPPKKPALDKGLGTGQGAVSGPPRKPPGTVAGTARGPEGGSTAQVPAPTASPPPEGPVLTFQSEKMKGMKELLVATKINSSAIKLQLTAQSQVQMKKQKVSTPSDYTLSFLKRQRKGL

[2] = tested on: MV4;11 cell line; assay: Cell growth inhibition assay; format: cell-based, human
[3] = Solubility comparison; format: physicochemical; settings: compared with 20

SMILES: CC(=O)O[C@H]1CCC[C@@H]1[C@](C#N)(c1ccccc1)C1CCN(CC2CN(c3ccc(C#N)cc3)C2)CC1 (mixture of isomers) [Compound 35, rac-(1S,2R)-2-((S)-Cyano(1-((1-(4-cyanophenyl)azetidin-3-yl)methyl)piperidin-4-yl)(phenyl)methyl)cyclopentyl acetate]
- Times more potent than 31 in binding to menin [1]: 80 times

SMILES: CCCC(=O)O[C@H]1CCC[C@@H]1[C@](C#N)(c1ccccc1)C1CCN(CC2CN(c3ccc(C#N)cc3)C2)CC1 (mixture of isomers) [Compound 38, rac-(1S,2R)-2-((S)-Cyano(1-((1-(4-cyanophenyl)azetidin-3-yl)methyl)piperidin-4-yl)-(phenyl)methyl)cyclopentyl butyrate]
- Fold loss in binding affinity to menin relative to 37 [1]: 30 fold

SMILES: CNC(=O)O[C@H]1CCC[C@@H]1[C@](C#N)(c1ccccc1)C1CCN(CC2CN(c3ccc(C#N)cc3)C2)CC1 (mixture of isomers) [Compound 39, rac-(1S,2R)-2-((S)-Cyano(1-((1-(4-cyanophenyl)azetidin-3-yl)methyl)piperidin-4-yl)-(phenyl)methyl)cyclopentyl methylcarbamate]
- Factor of enhancement of cellular activity in MV4;11 relative to 31 [2]: > 50
- Times more potent than 31 in binding to menin [1]: > 100 times

SMILES: CNC(=O)O[C@H]1CCC[C@@H]1[C@]1(C2CCN(CC3CN(c4ccc(S(=O)(=O)c5ccncc5)cc4)C3)CC2)CN(C)Cc2ccccc21 (mixture of isomers) [Compound 42, rac-(1S,2R)-2-((S)-2-Methyl-4-(1-((1-(4-(pyridin-4-ylsulfonyl)phenyl)azetidin-3-yl)methyl)piperidin-4-yl)-1,2,3,4-tetrahydroisoquinolin-4-yl)cyclopentyl methylcarbamate]
- Times more potent than MIV-6 in cell growth inhibition ([2]; MV4;11 (M-89: MV4;11 and MOLM-13)): > 100 times

SMILES: N#Cc1ccc(N2CC(CN3CCC(C(C#N)(c4ccccc4)C4CCCC4)CC3)C2)cc1 (racemic) [Compound 31, rac-4-(3-((4-(cyano(cyclopentyl)(phenyl)methyl)piperidin-1-yl)methyl)azetidin-1-yl)benzonitrile]
- Times weaker than MIV-6 in binding to menin [1]: 16 times

SMILES: N#Cc1ccc(OCCCN2CCC(C3(C4CCCC4)NCCc4ccccc43)CC2)cc1 (stereo not drawn) [Compound 6, 4-(3-(4-(1-Cyclopentyl-1,2,3,4-tetrahydroisoquinolin-1-yl)piperidin-1-yl)propoxy)-benzonitrile]
- Times more potent than MIV-6 in binding to menin [1]: 2-3 times

SMILES: N#Cc1ccc(N2CCC(N3CCC(C4(C5CCCC5)NCCc5ccccc54)CC3)CC2)cc1 (stereo not drawn) [Compound 9, 4-(4-(1-Cyclopentyl-1,2,3,4-tetrahydroisoquinolin-1-yl)-[1,4'-bipiperidin]-1'-yl)benzonitrile]
- Times less potent than 6 in binding to menin [1]: approximately 10 times

SMILES: N#Cc1ccc(N2CCCC(CN3CCC(C4(C5CCCC5)NCCc5ccccc54)CC3)C2)cc1 (stereo not drawn) [Compound 10, 4-(3-((4-(1-Cyclopentyl-1,2,3,4-tetrahydroisoquinolin-1-yl)piperidin-1-yl)methyl)piperidin-1-yl)benzonitrile]
- Times less potent than 6 in binding to menin [1]: ~100 times

SMILES: N#Cc1ccc(N2CC(CN3CCC(C4(C5CCCC5)NCCc5ccccc54)CC3)C2)cc1 (stereo not drawn) [Compound 12, 4-(3-((4-(1-Cyclopentyl-1,2,3,4-tetrahydroisoquinolin-1-yl)piperidin-1-yl)methyl)azetidin-1-yl)benzonitrile]
- Times more potent than 6 in binding to menin [1]: 2 times
- Times more potent than MIV-6 in binding to menin [1]: 5 times

SMILES: CS(=O)(=O)c1ccc(N2CC(CN3CCC(C4(C5CCCC5)NCCc5ccccc54)CC3)C2)cc1 (stereo not drawn) [Compound 13, 1-Cyclopentyl-1-(1-((1-(4-(methylsulfonyl)phenyl)azetidin-3-yl)methyl)piperidin-4-yl)-1,2,3,4-tetrahydroisoquinoline]
- Times less potent than 12 in binding to menin [1]: 4 times

SMILES: CC(C)S(=O)(=O)c1ccc(N2CC(CN3CCC(C4(C5CCCC5)NCCc5ccccc54)CC3)C2)cc1 (stereo not drawn) [Compound 15, 1-Cyclopentyl-1-(1-((1-(4-(isopropylsulfonyl)phenyl)azetidin-3-yl)methyl)piperidin-4-yl)-1,2,3,4-tetrahydroisoquinoline]
- Times less potent than 14 in binding to menin [1]: 2 times
- Times more potent than 13 in binding to menin [1]: 2 times

SMILES: O=S(=O)(c1ccc(N2CC(CN3CCC(C4(C5CCCC5)NCCc5ccccc54)CC3)C2)cc1)C1CC1 (stereo not drawn) [Compound 16, 1-Cyclopentyl-1-(1-((1-(4-(cyclopropylsulfonyl)phenyl)azetidin-3-yl)methyl)piperidin-4-yl)-1,2,3,4-tetrahydroisoquinoline]
- Times more potent than 15 in binding to menin [1]: 2-3 times

SMILES: O=S(=O)(c1ccncc1)c1ccc(N2CC(CN3CCC(C4(C5CCCC5)NCCc5ccccc54)CC3)C2)cc1 (stereo not drawn) [Compound 21, 1-Cyclopentyl-1-(1-((1-(4-(pyridin-4-ylsulfonyl)phenyl)azetidin-3-yl)methyl)piperidin-4-yl)-1,2,3,4-tetrahydroisoquinoline]
- Relative solubility [3]: more soluble than 20

SMILES: O=S(=O)(c1ccncc1)c1ccc(N2CC(CN3CCC(C4(C5CCCC5)CNCc5ccccc54)CC3)C2)cc1 (stereo not drawn) [Compound 22, 4-Cyclopentyl-4-(1-((1-(4-(pyridin-4-ylsulfonyl)phenyl)azetidin-3-yl)methyl)piperidin-4-yl)-1,2,3,4-tetrahydroisoquinoline]
- Times more potent than 21 in binding to menin [1]: 2-3 times

SMILES: CN1Cc2ccccc2C(C2CCCC2)(C2CCN(CC3CN(c4ccc(S(=O)(=O)c5ccncc5)cc4)C3)CC2)C1 (stereo not drawn) [Compound 23, 4-Cyclopentyl-2-methyl-4-(1-((1-(4-(pyridin-4-ylsulfonyl)phenyl)azetidin-3-yl)methyl)piperidin-4-yl)-1,2,3,4-tetrahydroisoquinoline]
- IC50 ([2]; Homo sapiens, MV4-11, read-out: IC50 cell growth inhibition MV4;11): 0.4 to 1 µM
